Data reported in patent US8445522B2, “Substituted 2-(4-pyridyl)benzoxazoles, and compositions thereof, for use in arthropod pest control” (Sumitomo Chemical Company, Limited, priority 2009, dated 2013).

Key:
Type in all cases: in vivo
[1] = test system: rice brown planthopper; test: Test Example 5: test diluent scattered on rice plant seedling, rice brown planthopper released; conditions: Nilaparvata lugens, 144 h; 500 ppm, 10 ml scattered on rice plant seedling, 30 first-instars released, counted after six days at 25° C.; read-out: Control value
Experimental: The formulations were diluted with water so that the concentration of the active ingredient became 500 ppm and thus test diluents were prepared. On the other hand, to a rice plant seedling (two weeks after seeding, second leaf development stage) planted in a plastic cup, any one of the diluents (10 ml) was scattered. After the drug solution scattered on the rice plant was dried, 30 first-instars of rice brown planthopper were released on the rice plant, which was kept in the green house at 25° C. for six days. Thereafter, the number of rice brown planthopper parasitic on rice plant was counted and the control value was calculated by the following equation. Control value(%)={1−(Cb×Tai)/(Cai×Tb)}×100 wherein each character represents the following meaning: Cb: number of insects in non-treated section before treatment Cai: number of insects in non-treated section during observation Tb: number of insects in treated section before treatment Tai: number of insects in treated section during observation

[2] = test system: rice brown planthopper; test: Test Example 6: plant foot irrigation of rice plant seedling, rice brown planthopper released after seven days; conditions: Nilaparvata lugens, 144 h; 500 ppm, 5 ml plant foot irrigation of rice seedling; first-instars released after seven days, counted six days after; read-out: Control value
Experimental: The formulations were diluted with water so that the concentration of the active ingredient became 500 ppm and thus test diluents were prepared. On the other hand, a plant foot of rice plant seedling (two weeks after seeding, second leaf development stage) planted in a plastic cup was irrigated with any one of diluents (5 ml). The seedling was kept in a green house of 25° C. for seven days. Thirty first-instars of rice brown planthopper were released to the seedling, which was kept in the green house at 25 C for six days. Thereafter, the number of survived rice brown planthopper parasitic on rice plant leaves was counted, and the control value was calculated by the following equation. Control value(%)={1−(Cb×Tai)/(Cai×Tb)}×100 wherein each character represents the following meaning: Cb: number of insects in non-treated section before treatment Cai: number of insects in non-treated section during observation Tb: number of insects in treated section before treatment Tai: number of insects in treated section during observation

[3] = test system: tobacco whitefly; test: Test Example 4: test diluent scattered on tomato seedling with hatched tobacco whitefly larvae; conditions: 168 h; 500 ppm, 10 ml/cup scattered on tomato seedling at larvae stage, counted after seven days at 25° C.; read-out: Control value
Experimental: The formulations were diluted with water so that the concentration of the active ingredient became 500 ppm and thus test diluents were prepared. On the other hand, by releasing tobacco whitefly imagos to a tomato seedling planted in a plastic cup to allow them to lay eggs for about 24 hours. The tomato seedling was kept in a green house for eight days. At the stage in which larvae hatched from the laid eggs, any of the test diluents was scattered at the rate of 10 ml/cup. The tomato seedling was kept in the greenhouse at 25° C. for seven days. The number of survived larvae on tomato leaves was counted, and the control value was calculated by the following equation. Control value(%)={1−(Cb×Tai)/(Cai×Tb)}×100 wherein each character represents the following meaning: Cb: number of insects in non-treated section before treatment Cai: number of insects in non-treated section during observation Tb: number of insects in treated section before treatment Tai: number of insects in treated section during observation

[4] = test system: cotton aphids (Aphis gossypii Glover); test: Test Example 1: test diluent scattered on cucumber seedling inoculated with cotton aphids; conditions: 120 h, 500 ppm active ingredient, 10 ml scattered on cucumber seedling, counted five days after scattering, read-out: Control value
Experimental: The formulations were diluted with water so that the concentration of the active ingredient became 500 ppm and thus test diluents were prepared. On the other hand, a cucumber seedling (second true leaf development stage) planted in a plastic cup was inoculated with about 30 cotton aphids (Aphis gossypii Glover) and allowed to stand for one day. To the seedling, any one of the diluents (10 ml) was scattered. Five days after the scattering, the number of survived cotton aphids parasitic on the cucumber leaves was counted, and the control value was calculated by the following equation. Control value(%)={1−(Cb×Tai)/(Cai×Tb)}×100 wherein each character represents the following meaning: Cb: the number of insects in non-treated section before treatment Cai: the number of insects in non-treated section during observation Tb: the number of insects in treated section before treatment Tai: the number of insects in treated section during observation

[5] = test system: cotton aphids; test: Test Example 2: plant foot irrigation of cucumber seedling in urethane mat, cotton aphids inoculated one day after treatment; conditions: 168 h; 500 ppm, 5 ml plant foot irrigation, urethane mat; aphids inoculated one day after treatment, counted seven days after; read-out: Control value
Experimental: The formulations were diluted with water so that the concentration of the active ingredient became 500 ppm and thus test diluents were prepared. On the other hand, a plant foot of cucumber seedling (second true leaf development stage) planted in a urethane mat was irrigated with any one of diluents (5 ml). One day after the treatment, the cucumber leaves were inoculated with 30 cotton aphids (all stages). Further seven days after, the number of survived cotton aphids parasitic on the cucumber leaves was counted, and the control value was calculated by the following equation. Control value(%)={1−(Cb×Tai)/(Cai×Tb)}×100 wherein each character represents the following meaning: Cb: number of insects in non-treated section before treatment Cai: number of insects in non-treated section during observation Tb: number of insects in treated section before treatment Tai: number of insects in treated section during observation

How did the pest or weed control at 500 ppm [1] turn out when `FC(F)(F)c1cnc2oc(-c3ccncc3Cl)nc2c1` [Active Compound 139, 2-(3-chloropyridin-4-yl)-6-(trifluoromethyl)oxazolo[5,4-b]pyridine] was run?
Its pest or weed control at 500 ppm is ≥ 90%.

And the pest or weed control at 500 ppm [2]?
Its pest or weed control at 500 ppm is ≥ 90%.

For `CCCc1ccc2oc(-c3ccncc3)nc2c1` [active compound 1, 5-propyl-2-(pyridin-4-yl)-benzoxazole], which pest or weed control at 500 ppm [1] is on record?
The pest or weed control at 500 ppm was ≥ 90%.

And the pest or weed control at 500 ppm [3]?
The pest or weed control at 500 ppm was ≥ 90%.

How did the pest or weed control at 500 ppm [1] turn out when `CC(C)(C)c1ccc2nc(-c3ccncc3)oc2c1` [active compound 8, 6-tert-butyl-2-(pyridin-4-yl)-benzoxazole] was run?
The pest or weed control at 500 ppm was ≥ 90%.

And the pest or weed control at 500 ppm [3]?
The pest or weed control at 500 ppm was ≥ 90%.

Which pest or weed control at 500 ppm [1] does the source give for `FC(F)(F)c1ccc2oc(-c3ccncc3-c3ccccc3)nc2c1` [active compound 32, 2-(3-phenylpyridin-4-yl)-5-(trifluoromethyl)benzoxazole] here?
The pest or weed control at 500 ppm was ≥ 90%.

`C#Cc1cnccc1-c1nc2cc(C(F)(F)F)ccc2o1` [active compound 34, 2-(3-ethynylpyridin-4-yl)-5-(trifluoromethyl)benzoxazole] was tested. Which pest or weed control at 500 ppm [1] did it give?
The pest or weed control at 500 ppm was ≥ 90%.

And the pest or weed control at 500 ppm [4]?
The pest or weed control at 500 ppm was ≥ 90%.

And the pest or weed control at 500 ppm [3]?
The pest or weed control at 500 ppm was ≥ 90%.

`FC(F)(F)CSc1cnccc1-c1nc2cc(C(F)(F)F)ccc2o1` [active compound 46, 2-[3-(2,2,2-trifluoroethylthio)pyridin-4-yl]-5-(trifluoromethyl)benzoxazole] was tested. Which pest or weed control at 500 ppm [1] did it give?
Its pest or weed control at 500 ppm is ≥ 90%.

What about the pest or weed control at 500 ppm [4] of the same molecule?
The pest or weed control at 500 ppm was ≥ 90%.

And the pest or weed control at 500 ppm [3]?
Its pest or weed control at 500 ppm is ≥ 90%.

What about the pest or weed control at 500 ppm [2] of the same molecule?
The pest or weed control at 500 ppm was ≥ 90%.

Which pest or weed control at 500 ppm [1] does the source give for `Cc1cnn(-c2cnccc2-c2nc3cc(C(F)(F)F)ccc3o2)c1` [active compound 61, 2-[3-(4-methylpyrazole-1-yl)pyridin-4-yl]-5-(trifluoromethyl)benzoxazole] here?
Its pest or weed control at 500 ppm is ≥ 90%.

And the pest or weed control at 500 ppm [4]?
The pest or weed control at 500 ppm was ≥ 90%.

`FC(F)(F)C(F)(c1ccc2oc(-c3ccncc3)nc2c1)C(F)(F)F` [active compound 67, 2-(pyridin-4-yl)-5-(heptafluoroisopropyl)benzoxazole] was tested. Which pest or weed control at 500 ppm [1] did it give?
Its pest or weed control at 500 ppm is ≥ 90%.

For `FC(F)(F)COc1cnccc1-c1nc2cc3c(cc2o1)C(F)(F)OC3(F)F` [active compound 89, 5,5,7,7-tetrafluoro-2-[3-(2,2,2-trifluoroethoxy)pyridin-4-yl]-5,7-dihydro-furo[3′,4′:4,5]benzo[1,2-d]oxazole], which pest or weed control at 500 ppm [1] is on record?
Its pest or weed control at 500 ppm is ≥ 90%.

And the pest or weed control at 500 ppm [4]?
Its pest or weed control at 500 ppm is ≥ 90%.

And the pest or weed control at 500 ppm [3]?
Its pest or weed control at 500 ppm is ≥ 90%.

How did the pest or weed control at 500 ppm [1] turn out when `CC(C)Oc1cnccc1-c1nc2cc3c(cc2o1)C(F)(F)OC3(F)F` [active compound 97, 5,5,7,7-tetrafluoro-2-(3-isopropoxypyridin-4-yl)-5,7-dihydro-furo[3′,4′:4,5]benzo[1,2-d]oxazole] was run?
The pest or weed control at 500 ppm was ≥ 90%.

And the pest or weed control at 500 ppm [4]?
The pest or weed control at 500 ppm was ≥ 90%.

What about the pest or weed control at 500 ppm [3] of the same molecule?
The pest or weed control at 500 ppm was ≥ 90%.

And the pest or weed control at 500 ppm [2]?
Its pest or weed control at 500 ppm is ≥ 90%.

For `CC(C)(C)c1ccc2oc(-c3ccncc3C(F)(F)F)nc2c1` [active compound 107, 5-tert-butyl-2-(3-trifluoromethylpyridin-4-yl)benzoxazole], which pest or weed control at 500 ppm [1] is on record?
Its pest or weed control at 500 ppm is ≥ 90%.

What about the pest or weed control at 500 ppm [3] of the same molecule?
Its pest or weed control at 500 ppm is ≥ 90%.

And the pest or weed control at 500 ppm [2]?
The pest or weed control at 500 ppm was ≥ 90%.

What about the pest or weed control at 500 ppm [5] of the same molecule?
The pest or weed control at 500 ppm was ≥ 90%.

Which pest or weed control at 500 ppm [1] does the source give for `CCOCCOc1cnccc1-c1nc2cc(C(F)(F)F)ccc2o1` [active compound 122, 2-[3-(2-ethoxyethoxy)pyridin-4-yl]-5-(trifluoromethyl)benzoxazole] here?
The pest or weed control at 500 ppm was ≥ 90%.

What about the pest or weed control at 500 ppm [4] of the same molecule?
Its pest or weed control at 500 ppm is ≥ 90%.

What about the pest or weed control at 500 ppm [3] of the same molecule?
Its pest or weed control at 500 ppm is ≥ 90%.

Which results are given for `CCCCCOc1cnccc1-c1nc2cc(C(F)(F)F)ccc2o1` [active compound 123, 2-(3-pentyloxypyridin-4-yl)-5-(trifluoromethyl)benzoxazole]?
pest or weed control at 500 ppm [1]: ≥ 90%; pest or weed control at 500 ppm [3]: ≥ 90%

`FC(F)(F)c1cnc2oc(-c3ccncc3)nc2c1` [active compound 138, 2-pyridin-4-yl-6-(trifluoromethyl)oxazolo[5,4-b]pyridine] was tested. Which pest or weed control at 500 ppm [1] did it give?
Its pest or weed control at 500 ppm is ≥ 90%.
